This passage reports IC50 results from patent US9346761B2, “Arginine methyltransferase inhibitors and uses thereof” (Epizyme, Inc., priority 2013, dated 2016).

The target in experiment [1] is T1, Full-length human PRMT1 isoform 1 (Homo sapiens, UniProt Q99873).
T1 construct: GST-tagged PRMT1; made in house; host or cells: High Five insect cells (baculovirus, pFastBacI)
Put plainly: PRMT1 biochemical assay (3H-SAM Flashplate, peptide substrate). In a few lines:
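GST-tagged full-length PRMT1 from baculovirus-infected cells, preincubated 30 min at room temperature with compound in 20 mM Bicine pH 7.6, TCEP, BSG, Tween 20. Reaction started with 3H-SAM plus biotinylated peptide, stopped with 300 uM unlabelled SAM. Streptavidin Flashplate capture and scintillation counting; % inhibition curve-fitted for IC50.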

The target in a further experiment is T2, Full-length human PRMT8 (Homo sapiens, UniProt Q9NR22).
T2 construct: Full-length human PRMT8 (NM_019854.4) isoform 1 transcript clone; made in house
T2 sequence (Q9NR22 whole entry, canonical isoform): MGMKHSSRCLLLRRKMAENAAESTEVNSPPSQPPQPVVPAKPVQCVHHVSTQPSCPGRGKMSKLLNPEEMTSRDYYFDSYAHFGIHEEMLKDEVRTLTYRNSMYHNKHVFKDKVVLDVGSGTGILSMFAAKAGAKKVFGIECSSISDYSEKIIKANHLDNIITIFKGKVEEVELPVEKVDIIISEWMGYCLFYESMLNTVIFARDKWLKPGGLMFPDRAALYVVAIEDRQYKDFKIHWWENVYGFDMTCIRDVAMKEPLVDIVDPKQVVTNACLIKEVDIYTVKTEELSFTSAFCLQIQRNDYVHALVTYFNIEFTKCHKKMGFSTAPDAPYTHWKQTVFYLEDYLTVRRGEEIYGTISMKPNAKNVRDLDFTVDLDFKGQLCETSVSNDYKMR
The experiment is described as follows: PRMT8 biochemical assay (3H-SAM Flashplate, peptide substrate). The gist of the method: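 E. coli-expressed PRMT8, GST-cleaved, was preincubated with compound for 30 min at room temperature in 20 mM Bicine pH 7.6, 1 mM TCEP, 0.005% BSG, 0.002% Tween 20. ³H-SAM and biotinylated histone H4 31-45 peptide then started methylation.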

T1 sequence (Q99873 with tags, fused parts or gaps): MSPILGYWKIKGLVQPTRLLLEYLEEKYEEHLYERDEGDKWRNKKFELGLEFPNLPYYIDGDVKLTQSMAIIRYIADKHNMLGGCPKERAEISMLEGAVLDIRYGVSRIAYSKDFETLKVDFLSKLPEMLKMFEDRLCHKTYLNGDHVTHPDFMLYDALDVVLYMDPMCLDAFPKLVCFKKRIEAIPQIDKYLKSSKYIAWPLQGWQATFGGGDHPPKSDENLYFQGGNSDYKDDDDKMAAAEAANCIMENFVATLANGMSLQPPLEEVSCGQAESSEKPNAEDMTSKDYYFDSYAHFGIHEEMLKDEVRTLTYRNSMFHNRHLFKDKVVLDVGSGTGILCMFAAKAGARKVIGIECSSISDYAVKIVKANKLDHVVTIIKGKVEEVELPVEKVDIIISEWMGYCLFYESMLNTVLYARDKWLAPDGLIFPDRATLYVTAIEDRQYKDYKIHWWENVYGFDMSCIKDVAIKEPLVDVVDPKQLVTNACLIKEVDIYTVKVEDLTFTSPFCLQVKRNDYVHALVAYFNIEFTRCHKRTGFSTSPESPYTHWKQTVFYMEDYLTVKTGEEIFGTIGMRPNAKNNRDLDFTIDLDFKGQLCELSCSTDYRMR

The term IC50 denotes the concentration that gives 50% inhibition. Low values mean higher potency, high ones lower potency. As for `CCC(=O)N1CCN(c2ccc(-c3n[nH]cc3CN(C)CCN)cc2)CC1` [Compound 189], the figures for the IC50 (in experiment [1]; against Full-length human PRMT8) were 101 to 1000 nM and 1010 to 3000 nM, respectively.

Consider `CC(C)CN1C(=O)COc2ccc(-c3n[nH]cc3CN(C)CCN)cc21` [Compound 191], for which the IC50 in experiment [1] was in the range of 101 to 1000 nM; on Full-length human PRMT8 it was 3010 to 10000 nM.

Consider `CN(CCN)Cc1c[nH]nc1-c1ccc2c(c1)OCC(=O)N2C` [Compound 192], for which the values for the IC50 (in experiment [1]; on Full-length human PRMT8) were 101 to 1000 nM and 1010 to 3000 nM, respectively.

`CC(C)CN1C(=O)COc2cc(-c3n[nH]cc3CN(C)CCN)ccc21` [Compound 193]: the IC50 in experiment [1] is less than 100 nM; against Full-length human PRMT8, 101 to 1000 nM.

As for `CN(CCN)Cc1c[nH]nc1-c1ccc(OCCO)cc1` [Compound 194], the IC50 in experiment [1] was less than 100 nM; against Full-length human PRMT8, 101 to 1000 nM.

Turning to `CN(CCN)Cc1c[nH]nc1-c1ccc(OCCCO)cc1` [Compound 195], the values for the IC50 (in experiment [1]; on Full-length human PRMT8) were less than 100 nM and 101 to 1000 nM, respectively.

In the case of `CN(CCN)Cc1c[nH]nc1-c1ccc2c(c1)N(C)C(=O)CO2` [Compound 196], the IC50 in experiment [1] fell in the range of 101 to 1000 nM; at Full-length human PRMT8, 1010 to 3000 nM.

Take `CCNC(=O)c1cccc(-c2n[nH]cc2CN(C)CCN)c1` [Compound 197]: the IC50 in experiment [1] was in the range of 101 to 1000 nM; against Full-length human PRMT8, 1010 to 3000 nM.

On to `CCN(C)C(=O)c1cccc(-c2n[nH]cc2CN(C)CCN)c1` [Compound 198], for which the IC50 in experiment [1] was 1010 to 3000 nM; at Full-length human PRMT8, greater than 10000 nM.

With `Cc1cc(-c2n[nH]cc2CN(C)CCN)cc(C)c1OC(C)C` [Compound 199, N^1-((3-(4-isopropoxy-3,5-dimethylphenyl)-1H-pyrazol-4-yl)methyl)-N^1-methylethane-1,2-diamine], the values for the IC50 (in experiment [1]; against Full-length human PRMT8) were less than 100 nM and 101 to 1000 nM, respectively.

Turning to `CN(CCN)Cc1c[nH]nc1-c1ccc(Oc2ccccc2)c(C#N)c1` [Compound 202], the IC50 in experiment [1] is less than 100 nM; against Full-length human PRMT8, 101 to 1000 nM.

With `CN(CCN)Cc1n[nH]cc1-c1ccc(Oc2ccccc2)cc1` [Compound 203], the values for the IC50 (in experiment [1]; against Full-length human PRMT8) were less than 100 nM and 101 to 1000 nM, respectively.

As to `CNCCN(C)Cc1n[nH]cc1-c1ccc(Oc2ccccc2)cc1` [Compound 204], the IC50 (in experiment [1]; at Full-length human PRMT8) was less than 100 nM each time.

For the compound `CN(CCN)Cc1c[nH]nc1-c1ccc(Oc2cccc(F)c2)cc1` [Compound 205], the IC50 is less than 100 nM in experiment [1] and 101 to 1000 nM at Full-length human PRMT8.

As for `CNCCN(C)Cc1cn(C)nc1-c1ccc(OC(C)C)c(Cl)c1` [Compound 206], the figures for the IC50 (in experiment [1]; on Full-length human PRMT8) were less than 100 nM and 101 to 1000 nM, respectively.

Take `CNCCN(C)Cc1cn(C)nc1-c1ccc(Oc2ccccc2)cc1` [Compound 207]: the IC50 in experiment [1] is less than 100 nM; on Full-length human PRMT8 it was 101 to 1000 nM.

As to `CNCCN(C)Cc1cnn(C)c1-c1ccc(Oc2ccccc2)cc1` [Compound 208], the IC50 in experiment [1] is less than 100 nM; on Full-length human PRMT8, 101 to 1000 nM.

As for `CNCCN(C)Cc1c[nH]nc1-c1ccc(OCCCOC)cc1` [Compound 209], the figures for the IC50 (in experiment [1]; against Full-length human PRMT8) were less than 100 nM and 101 to 1000 nM, respectively.

For the compound `CNCCN(C)Cc1n[nH]cc1-c1ccc(OC(C)C)c(F)c1` [Compound 210], the results for the IC50 (in experiment [1]; at Full-length human PRMT8) were less than 100 nM and 101 to 1000 nM, respectively.

With `CC(C)Oc1ccc(-c2c[nH]nc2CN(C)CCN)cc1Cl` [Compound 211], the IC50 is less than 100 nM in experiment [1] and 101 to 1000 nM on Full-length human PRMT8.

On to `CNCCN(C)Cc1n[nH]cc1-c1ccc(OC(C)C)c(Cl)c1` [Compound 212], for which the IC50 (in experiment [1]; at Full-length human PRMT8) was less than 100 nM throughout.

On to `CNCCN(C)Cc1c[nH]nc1-c1ccc(Oc2ccccc2)c(C#N)c1` [Compound 221], for which the concentration for half-maximal inhibition (IC50) in experiment [1] is less than 100 nM; at Full-length human PRMT8 it was 101 to 1000 nM.

As for `CN(CCN)Cc1c(-c2ccc(C#N)cc2)ncn1C` [Compound 222], the figures for the IC50 (in experiment [1]; at Full-length human PRMT8) were 1010 to 3000 nM and 3010 to 10000 nM, respectively.

For the compound `CN(CCN)Cc1c[nH]nc1-c1ccc(Oc2ccccc2)c(F)c1` [Compound 224, N^1-((3-(3-fluoro-4-phenoxyphenyl)-1H-pyrazol-4-yl)methyl)-N^1-methylethane-1,2-diamine], the results for the IC50 (in experiment [1]; at Full-length human PRMT8) were less than 100 nM and 101 to 1000 nM, respectively.
